The numbers were not newly measured in patent publication US20100183693A1 (priority 2005, published 2010), which cites them from elsewhere.

Structures are written as SMILES. Entries after “also recorded” stand apart in the source; their conditions may differ. Where two headings read alike, the source gives them in different places.

Consider `[O][Cl+][O-]` [ClO2, chlorine dioxide], for which the “Effectiveness of Biocides (rank order)” value is “Cl2 < NaOCl < HOCl + NaBr < ClO2 <; also recorded: ClO2 < HOCl + NaBr < BCDMH < Cl2 <” (pH 6.8) and “HOCl + NaBr < ClO2 < BCDMH < Cl2 <” (pH 8).
With `CC1(C)C(=O)N(Cl)C(=O)N1Br` [BCDMH, bromo-chlorodimethyl hydantoin], the “Effectiveness of Biocides (rank order)” value runs as follows: (pH 6.8) “BCDMH < ozone; also recorded: ClO2 < HOCl + NaBr < BCDMH < Cl2 <”; (pH 8) “HOCl + NaBr < ClO2 < BCDMH < Cl2 <”.
With `O=[O+][O-]` [Sample O3, ozone], the “Effectiveness of Biocides (rank order)” value is, setting by setting: (pH 6.8) “BCDMH < ozone; also recorded: NaOCl < ozone”; (pH 8) “NaOCl < ozone”.
For the compound `[Na+].[O-]Cl` [NaOCl], the “Effectiveness of Biocides (rank order)” value (pH 6.8) is on record as “Cl2 < NaOCl < HOCl + NaBr < ClO2 <; also recorded: NaOCl < ozone” and the “Effectiveness of Biocides (rank order)” value (pH 8) is listed as “NaOCl < ozone”.
